Data from ChEMBL document CHEMBL1201862, “PubChem BioAssay data set” (2004).
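All cell lines were grown in 96-well plates and treated with compound for 48 hours. Here, GI50 denotes the concentration required for 50% inhibition of growth.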 Activity calls are given as the source filed them. Rule as the data show it: active = GI50 up to about 1.1 µM and inactive = higher.

Legend:
Experiment in all cases: NCI anticancer screen, dose series, 48 h
[1] = system: A498
[2] = system: BT-549
[3] = system: DU-145
[4] = system: HCT-15
[5] = system: HL-60
[6] = system: Hs-578T
[7] = system: IGROV-1
[8] = system: M14
[9] = system: MCF7
[10] = system: MDA-MB-231
[11] = system: Malme-3M
[12] = system: OVCAR-5
[13] = system: RPMI-8226
[14] = system: SF-268
[15] = system: SK-MEL-5
[16] = system: U-251
[17] = system: UACC-257
[18] = system: PC-3
[19] = system: SR

SMILES | GI50 [1] | GI50 [2] | GI50 [3] | GI50 [4] | GI50 [5] | GI50 [6] | GI50 [7] | GI50 [8] | GI50 [9] | GI50 [10] | GI50 [11] | GI50 [12] | GI50 [13] | GI50 [14] | GI50 [15] | GI50 [16] | GI50 [17] | GI50 [18] | GI50 [19]
O=C(NCCCN(CCCCN(CCCNC(=O)C(F)(F)F)Cc1ccccc1)Cc1ccccc1)C(F)(F)F | 20.6 µM (inactive) | 14.9 µM (inactive) | 19.7 µM (inactive) | 12.4 µM | 12.9 µM (inactive) | 16.6 µM (inactive) | 13.4 µM (inactive) | 3.49 µM (inactive) | 12.3 µM (inactive) | 17.5 µM (inactive) | 15.1 µM (inactive) | 19.9 µM (inactive) | 16 µM (inactive) | 12.5 µM (inactive) | 3.39 µM (inactive) | > 10 µM (inactive) | 5.07 µM (inactive) |  | 
OC(Cc1cccc2ccccc12)CN1CCC(c2ccccc2)CC1 (stereo unspecified) |  | 16.8 µM (inactive) | 14.9 µM (inactive) | 14.5 µM | 16.7 µM (inactive) | 15.8 µM (inactive) |  | 13.8 µM (inactive) | 17.3 µM (inactive) | 14.2 µM (inactive) |  | 13.7 µM (inactive) | 8.13 µM (inactive) | 14.4 µM (inactive) | 12.1 µM (inactive) | 13.4 µM (inactive) | 3.72 µM (inactive) | 14.5 µM (inactive) | 10.8 µM (inactive)
O=c1[nH]nc(-c2ccccc2)n1-n1cnnc1 | > 100 µM (inactive) | > 100 µM (inactive) |  | > 100 µM |  | > 100 µM (inactive) | > 100 µM (inactive) | > 100 µM (inactive) | > 100 µM (inactive) | > 100 µM (inactive) | > 100 µM (inactive) | > 100 µM (inactive) | > 100 µM (inactive) | > 100 µM (inactive) | > 100 µM (inactive) | > 100 µM (inactive) | > 100 µM (inactive) | > 100 µM (inactive) | > 100 µM (inactive)
COc1cccc2c1CCc1sc(CN3CCN(C)CC3)nc1-2 | 26.7 µM (inactive) | > 100 µM (inactive) | > 100 µM (inactive) | 83.6 µM |  | > 100 µM (inactive) | > 100 µM (inactive) | 51.1 µM (inactive) | 26.4 µM (inactive) | 85.7 µM (inactive) | > 100 µM (inactive) | > 100 µM (inactive) | 30.1 µM (inactive) | > 100 µM (inactive) | 28.1 µM (inactive) | > 100 µM (inactive) | > 100 µM (inactive) | 44.8 µM (inactive) | 
O=C1C=Cc2c1csc2Br |  | 27.4 µM (inactive) | > 100 µM (inactive) | 28.6 µM |  | 41.2 µM (inactive) | 38.3 µM (inactive) | 19.1 µM (inactive) | 24.9 µM (inactive) | 91.8 µM (inactive) | 38.1 µM (inactive) | > 100 µM (inactive) |  | 86.9 µM (inactive) | 69.3 µM (inactive) | 51.2 µM (inactive) | 67.3 µM (inactive) | 65.3 µM (inactive) | 10.6 µM (inactive)
CC(=O)O[C@H]1C(=O)[C@@]2(C)C([C@H](OC(=O)c3ccccc3)[C@]3(O)C[C@H](OC(=O)[C@H](O)[C@@H](NC(=O)c4ccc(Cl)cc4)c4ccccc4)C(C)=C1C3(C)C)C1(OC(C)=O)CO[C@@H]1C[C@@H]2O (stereo partly specified) | 0.322 µM (active) | 0.0643 µM (active) | 0.0865 µM (active) | 1.36 µM | 0.0025 µM (active) | 0.0188 µM (active) | 0.0946 µM (active) | 0.0889 µM (active) | 0.0181 µM (active) | 0.265 µM (active) | 0.094 µM (active) | 0.104 µM (active) | < 0.01 µM (active) | 0.156 µM (active) | < 0.01 µM (active) | 0.092 µM (active) | 0.109 µM (active) | 0.0615 µM (active) | 
O=C1CC2CCC(C1)[S+]2[O-] (stereo unspecified) |  | > 100 µM (inactive) | > 100 µM (inactive) | > 100 µM | > 100 µM (inactive) | > 100 µM (inactive) | > 100 µM (inactive) | > 100 µM (inactive) | > 100 µM (inactive) | > 100 µM (inactive) | > 100 µM (inactive) |  | > 100 µM (inactive) | > 100 µM (inactive) | > 100 µM (inactive) | > 100 µM (inactive) | > 100 µM (inactive) | > 100 µM (inactive) | > 100 µM (inactive)
CC1(O)CC23CC1CCC2(C)C12CCCC(C)(C(=O)O1)C2CC3O (stereo unspecified) | > 100 µM (inactive) | > 100 µM (inactive) | > 100 µM (inactive) | > 100 µM | > 10 µM (inactive) | > 100 µM (inactive) | > 100 µM (inactive) | > 100 µM (inactive) | > 100 µM (inactive) | > 100 µM (inactive) | > 100 µM (inactive) | > 100 µM (inactive) |  | > 100 µM (inactive) | > 100 µM (inactive) | > 100 µM (inactive) | > 100 µM (inactive) | > 100 µM (inactive) | > 100 µM (inactive)
